Laboratory results taken from patent US12422427B2, “Compounds for treatment of diseases and methods of screening therefor” (Max-Planck-Gesellschaft zur Förderung der Wissenschaften …, priority 2018, dated 2025).
“Also recorded” adds a separate entry of the source.

What was measured:
[1] = tested on: D. melanogaster overexpressing human wild type FUS or ALS-associated FUS mutations; assay: Climbing assay: motor defects in D. melanogaster expressing human FUS; assay type: in vivo, Drosophila melanogaster; conditions: for motor defect / ability to climb: flies expressing wild-type FUS, FUS P525L or FUS R521C
Method: All Drosophila stocks were maintained on standard cornmeal at 25° C. in light/dark controlled incubator. The w1118, UAS-eGFP, and D42-GAL4 were obtained from Bloomington stock center. The UAS-FUS WT, UAS-FUS P525L, and UAS-FUS R521C were previously described in Anderson et al. (Hum. Mol. Genet. 27, 1366-1381, 2018).
Climbing assays were performed as previously described. Briefly, flies expressing FUS, eGFP or w1118 were grown in the presence or absence of (±)-α-Lipoic Acid (0.43 mM or 2.15 mM diluted in ethanol), (R)-(+)-α-Lipoic Acid (0.43 mM or 2.15 mM diluted in ethanol), (S)-(−)-α-Lipoic Acid (0.43 mM or 2.15 mM diluted in ethanol), (±)-α-Lipoamide (0.43 mM diluted in DMSO), or PP 242/Torkinib (10 μM or 50 μM diluted in DMSO), then anesthetised, placed into vials and allowed to acclimatise for 15 mins in new vials. For each fly genotype, the vial was knocked three times on the base on a bench and a video camera was used to record the flies climbing up the vial walls. The percentage of flies that climbed 4 cm in 30 s was recorded. Statistical analysis was carried out in GraphPad Prism 6 using either Student's T-test or one-way ANOVA with Tukey's or Dunnet's multiple comparisons test.

[2] = biological target: T1, G156E FUS GFP (Homo sapiens, UniProt P35637, G156E); assay: In vitro FUS GFP solidification (aging, fibre formation, FRAP); assay type: biochemical; conditions: for fibre formation of G156E FUS / hardening of FUS droplets (FRAP mobile fraction): 30 μM, aging while shaking, 1 mM DTT
T1 construct: His MBP (N, cleaved yes); made in house; host or cells: baculovirus/insect cell expression system
T1 sequence (P35637 1-526 G156E): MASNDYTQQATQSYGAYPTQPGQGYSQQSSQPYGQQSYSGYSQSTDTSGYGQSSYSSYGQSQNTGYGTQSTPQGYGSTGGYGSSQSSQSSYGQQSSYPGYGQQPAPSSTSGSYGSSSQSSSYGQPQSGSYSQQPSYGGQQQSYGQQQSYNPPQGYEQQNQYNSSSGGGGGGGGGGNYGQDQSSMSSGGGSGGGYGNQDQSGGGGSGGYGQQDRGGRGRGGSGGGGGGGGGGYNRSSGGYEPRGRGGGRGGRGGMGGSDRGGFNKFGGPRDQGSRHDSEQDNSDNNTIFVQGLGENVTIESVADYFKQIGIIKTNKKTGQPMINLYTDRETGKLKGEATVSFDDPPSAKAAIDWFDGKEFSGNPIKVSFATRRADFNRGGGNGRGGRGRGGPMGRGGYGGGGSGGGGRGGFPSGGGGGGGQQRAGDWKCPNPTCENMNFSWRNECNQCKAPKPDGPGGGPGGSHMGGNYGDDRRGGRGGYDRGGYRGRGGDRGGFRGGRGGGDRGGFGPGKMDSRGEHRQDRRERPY
Method: Therefore, hardening and fibre formation, another kinetic phenomenon, were analysed. In vitro FUS droplets ‘age’ over time, first hardening then tending to form amyloid/prion-like fibres. This is accelerated for G156E FUS, a mutation associated with familial ALS.
For in vitro solidification assays, FUS GFP in storage buffer was diluted in water to give 10 μM FUS, 50 mM Tris·HCl pH 7.4 and 1 mM DTT in a 20 μl volume in non-binding clear bottom 384 well plates (Greiner Bio-One, 781906). […] Fibre and droplet formation were analysed by widefield epifluorescence using a DeltaVision Elite microscope (GE Healthcare Life Sciences) with a Plan ApoN 60× NA 1.4 oil immersion objective (Olympus) and an sCMOS camera (PCO). For salt sensitivity of droplet formation FUS GFP in storage buffer was diluted in the appropriate concentration of KCl pre-mixed with compound or DMSO to generate the final KCl concentration series with 30 μM compound concentration and 0.3% DMSO.
Fluorescence recovery after photobleaching (FRAP) of FUS GFP droplets and fibres was performed on a Nikon TiE inverted microscope with a Nikon Apo 100× NA 1.49 oil immersion objective using a Yokogawa CSU-X1 spinning disc head and an Andor iXon EM+ DU-897 EMCCD camera. 10×10 px regions were bleached for […] with a 6 mW 405 nm laser using an Andor FRAPPA beam delivery unit then imaged for 5 min at 5 Hz. Recovery curve half-life and mobile fraction were calculated in ImageJ.

[3] = tested on: iPS MNs expressing P525L FUS; assay: Axon dieback of iPS-derived motor neurons expressing P525L FUS; assay type: cell-based, human; conditions: 2 μM in culture medium, 60 days
Text: In humans, one cause of familial ALS is FUS mutation, particularly in the C terminal NLS. P525L is one such mutation, and iPSC-derived motor neurons (iPSC MNs) expressing P525L from ALS patients show defects consistent with motor neuron defects in the patient. iPSC MNs can be grown through silicone channels, positioning the soma on one side with the axons protruding through the channels to the far side. Such cultures can be maintained for long periods (>60 days). However, when expressing P525L FUS, the axons die back within this time period without exogenous cell stressors, although P525L FUS MNs have a greater propensity to form stress granules. This is similar to axon retraction leading to motor dysfunction in patients. Therefore whether lipoamide or lipoic acid was able to improve these phenotypes was tested. […] To test this the inventors analysed transport of lysosomes within the axons of iPS MNs expressing P525L FUS with or without lipoamide in comparison to iPS MNs expressing WT FUS (FIGS. 12A-12B). […]
For analysis of axon dieback transport AH-ALS1-F58 iPS MNs expressing P525L FUS or an isogenic control expressing WT FUS were grown with 2 μM compound or an equal volume of DMSO for 60 days. […] Experiments and analysis were performed blinded, and axonal dieback was scored qualitatively using phase contrast images captured every 10 to 20 days.

[4] = in vivo; cited from earlier work

Row | SMILES | motor defect / ability to climb [1] | flies able to climb 4 cm in 30 s ([1]; food supplementation, from ˜50% without) [%] | fibre formation of G156E FUS [2] | hardening of FUS droplets (FRAP mobile fraction) [2] | axon die back [3] | toxicity [4] | FRAP of aged G156E FUS GFP condensates ([2]; 10 μM lipoamide, dextran crowding, vs 0.1% DMSO)
1 | O=C(O)CCCCC1CCSS1 (racemic) [lipoic acid, 5-(1,2-dithiolan-3-yl)pentanoic acid] | recovered the motor defect in a dose-dependent manner; also recorded: dose-dependent increase in the ability | > 80 | delayed fibre formation | delayed hardening of FUS droplets | prevented such die back | non-toxic | –
2 | NC(=O)CCCCC1CCSS1 (racemic) [lipoamide, 5-(1,2-dithiolan-3-yl)pentanamide] | recovers defects in motor function | – | delayed fibre formation | delayed hardening of FUS droplets | prevented such die back | non-toxic | maintain large FUS GFP mobile fraction and short FRAP half-life
